# US20240293367A1, “METHODS OF TREATING DISORDERS WITH A […]” (Cybin IRL Limited, priority 2023, published 2024)
# Structures can show the parent of a compound that is named as a salt. Where two headings read alike, the source gives them in different places.
# Legend:
# [1] = system: MDD patients; settings: cited from earlier work; for placebo subtracted difference in LSM change from baseline on MADRS score: adjunctive to antidepressants; for placebo subtracted difference in (LSM) change from baseline MADRS total score: pivotal clinical studies, package inserts
# [2] = Clinical PD of psilocin after psilocybin (VAS-Any drug effect, MEQ30, 5D-ASC versus psilocin Cmax); format: in vivo, human
# Source text: To evaluate potential psychedelic effects at various doses of psilocin-d10, data were summarized/modeled from published literature for psilocin after psilocybin administration.
# First, the VAS—Any drug effect score was modeled based on data from Holze et al. 2022 using a linear effect relationship to determine psilocin plasma concentrations in which a VAS—Any drug effect score of 20, 40, 60, and 80 mm was reached. This relationship is presented graphically in FIG. 4, based on the extraction of mean PK and PD data from the figures in Holze et al. 2022. Here, a linear concentration-effect relationship was identified with no evidence of hysteresis. As is evident from this modeled linear concentration-effect relationship according to Holze et al. 2022 (y=0.17+3.9x), a psilocin plasma concentration of about 15.34 ng/ml is the predicted amount required to achieve VAS-Any drug effect scores above 60 mm, a psilocin plasma concentration of about 17.9 ng/ml is the predicted amount required to achieve VAS-Any drug effect scores above 70 mm, and a psilocin plasma concentration of about 20.47 ng/ml is the predicted amount required to achieve a VAS-Any drug effect score of 80 mm.
# This modeled relationship between psilocin plasma concentration and VAS-Any drug effect score is also in agreement with reported literature studies relating plasma psilocin concentrations (μg/L) to neocortical serotonin 5-HT2A receptor occupancy % and subjective intensity of the psychedelic experience (see Madsen MK, Fisher PM, Burmester D, et al (2019). Psychedelic effects of psilocybin correlate with serotonin 2A receptor occupancy and plasma psilocin levels. Neuropsychopharmacology, 44:1328-34), albeit the Madsen et al. study uses a VAS scoring system related specifically to psychedelic effects. The psilocin concentrations needed to reach the plateau in receptor occupancy and the required VAS scores (psychedelic effects) can be seen graphically in FIG. 5 and FIGS. 6A-6B, which are reproduced from Madsen et al. 2019 (FIGS. 3 and 4, respectively, in Madsen et al. 2019). […]
# [3] = female, rat, in vivo, 40 mg/kg
# [4] = psilocin after psilocybin, Studerus et al. 2011; cited from earlier work
# [5] = 28-day (4-week GLP) toxicology study in dogs, toxicokinetic exposure; settings: dog, in vivo, 0.5 mg/kg; internal 4-week GLP toxicology study; read-out: Dog Cmax at 0.5 mg/kg
# Source text: The exposure limits will be applied on mean values within a cohort.
# [6] = linear model of Holze et al. 2022 data
smiles,measurement,setting,value
"CN(C)CCc1c[nH]c2ccccc12 [N,N-dimethyltryptamine (DMT), N,N-dimethyltryptamine]",MADRS CFB reduction over placebo,"[1]; intravenous, two-weeks postdose, Small Pharma press release",−7.4
CN(C)C(=O)N[C@H]1CC[C@H](CCN2CCN(c3cccc(Cl)c3Cl)CC2)CC1 [cariprazine],placebo subtracted difference in LSM change from baseline on MADRS score,"[1]; 1.5 mg/day fixed dose, 95% CI: −4.2, −0.9",−2.5
same,placebo subtracted difference in LSM change from baseline on MADRS score,"[1]; flexible doses of 2-4.5 mg/day, 95% CI: −3.7, −0.6",−2.2
same,placebo subtracted difference in (LSM) change from baseline MADRS total score,[1],−2.2 to −2.5
CCN(CC)C(=O)[C@@]1(c2ccccc2)C[C@H]1CN [levomilnacipram],placebo subtracted difference in (LSM) change from baseline MADRS total score,[1],−3.1 to −4.9
"CN(C)CCc1c[nH]c2cccc(O)c12 [psilocin, 4-hydroxy-N,N-dimethyltryptamine]",psilocin plasma concentration predicted for VAS-Any drug effect scores above 70 mm,[2]; linear concentration-effect model,about 17.9 ng/ml
same,psilocin Cmax / plasma concentration for VAS - Any drug effect: 20,[2]; [6],5.08 ng/mL
same,psilocin Cmax / plasma concentration for VAS - Any drug effect: 40,[2]; [6],10.2 ng/mL
same,Cmax,[3],343 ng/mL
same,psilocin Cmax with no change in list of complaints + 5D-ASC,[4],1.83 ng/mL
same,Cmax,[5],51.7 ng/mL
N#Cc1ccc2[nH]cc(CCCCN3CCN(c4ccc5oc(C(N)=O)cc5c4)CC3)c2c1 [vilazodone hydrochloride],placebo subtracted difference in (LSM) change from baseline MADRS total score,[1],−2.5 to −5.1
Cc1ccc(Sc2ccccc2N2CCNCC2)c(C)c1 [vortioxetine],difference in mean change from baseline of MADRS scores between placebo and drug,"[1]; 20 mg, meta-analysis of 11 placebo-controlled trials",4.57
same,placebo subtracted difference in (LSM) change from baseline MADRS total score,[1],−2.8 to −5.9
